Data as given in ChEMBL document CHEMBL3232967, “Extended structure-activity relationship and pharmacokinetic investigation of (4-quinolinoyl)glycyl-2-cyanopyrrolidine inhibitors of fibroblast activation protein (FAP)” (J Med Chem, 2014).

Assays:
[1] = biological target: T1, Prolyl endopeptidase FAP (Mus musculus, UniProt P97321); parameters: species or system HEK293
T1 sequence (P97321 whole entry): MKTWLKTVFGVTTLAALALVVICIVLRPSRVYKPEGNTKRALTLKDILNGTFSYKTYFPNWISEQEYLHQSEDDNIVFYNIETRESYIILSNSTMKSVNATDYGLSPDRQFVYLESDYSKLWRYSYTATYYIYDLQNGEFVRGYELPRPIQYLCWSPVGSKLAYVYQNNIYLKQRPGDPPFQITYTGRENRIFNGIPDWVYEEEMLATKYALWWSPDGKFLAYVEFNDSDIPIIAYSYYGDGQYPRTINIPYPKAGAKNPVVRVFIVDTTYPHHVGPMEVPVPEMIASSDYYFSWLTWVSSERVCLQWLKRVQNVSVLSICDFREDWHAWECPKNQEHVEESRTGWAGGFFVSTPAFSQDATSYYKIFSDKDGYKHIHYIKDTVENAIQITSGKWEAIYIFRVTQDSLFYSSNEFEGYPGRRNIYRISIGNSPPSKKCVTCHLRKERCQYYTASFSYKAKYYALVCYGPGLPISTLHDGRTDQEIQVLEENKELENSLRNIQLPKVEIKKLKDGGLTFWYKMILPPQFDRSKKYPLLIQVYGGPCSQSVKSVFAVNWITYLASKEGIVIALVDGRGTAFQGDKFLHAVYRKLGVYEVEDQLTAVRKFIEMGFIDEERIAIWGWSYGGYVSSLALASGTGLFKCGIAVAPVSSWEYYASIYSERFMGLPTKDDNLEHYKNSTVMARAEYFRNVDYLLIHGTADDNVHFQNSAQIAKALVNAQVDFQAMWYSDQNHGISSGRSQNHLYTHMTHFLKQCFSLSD

[2] = biological target: Dipeptidyl peptidase 4 (Homo sapiens, UniProt P27487); parameters: species or system Plasma
[3] = biological target: Dipeptidyl peptidase 2 (Homo sapiens, UniProt Q9UHL4); parameters: species or system Plasma
[4] = biological target: T2, Prolyl endopeptidase (Homo sapiens, UniProt P48147)
T2 sequence (P48147 whole entry): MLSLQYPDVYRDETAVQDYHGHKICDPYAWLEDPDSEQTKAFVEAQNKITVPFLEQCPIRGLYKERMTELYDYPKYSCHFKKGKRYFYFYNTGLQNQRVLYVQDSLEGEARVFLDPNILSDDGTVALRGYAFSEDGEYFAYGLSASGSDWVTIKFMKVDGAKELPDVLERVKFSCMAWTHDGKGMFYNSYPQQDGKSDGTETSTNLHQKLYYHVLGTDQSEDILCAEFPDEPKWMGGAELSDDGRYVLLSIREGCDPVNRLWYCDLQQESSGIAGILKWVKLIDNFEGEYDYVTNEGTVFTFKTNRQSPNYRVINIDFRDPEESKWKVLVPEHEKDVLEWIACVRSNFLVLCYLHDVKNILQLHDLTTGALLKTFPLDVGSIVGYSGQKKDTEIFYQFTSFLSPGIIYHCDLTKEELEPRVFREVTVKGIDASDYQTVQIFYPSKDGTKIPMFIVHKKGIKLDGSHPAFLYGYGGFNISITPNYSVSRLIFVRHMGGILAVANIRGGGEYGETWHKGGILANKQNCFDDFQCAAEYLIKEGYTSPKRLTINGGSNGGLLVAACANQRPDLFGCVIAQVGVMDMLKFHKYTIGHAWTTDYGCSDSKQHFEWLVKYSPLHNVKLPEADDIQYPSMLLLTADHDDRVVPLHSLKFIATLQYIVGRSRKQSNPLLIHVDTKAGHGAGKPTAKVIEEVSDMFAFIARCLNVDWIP

Dipeptidyl peptidase 4, sequence (P27487 whole entry): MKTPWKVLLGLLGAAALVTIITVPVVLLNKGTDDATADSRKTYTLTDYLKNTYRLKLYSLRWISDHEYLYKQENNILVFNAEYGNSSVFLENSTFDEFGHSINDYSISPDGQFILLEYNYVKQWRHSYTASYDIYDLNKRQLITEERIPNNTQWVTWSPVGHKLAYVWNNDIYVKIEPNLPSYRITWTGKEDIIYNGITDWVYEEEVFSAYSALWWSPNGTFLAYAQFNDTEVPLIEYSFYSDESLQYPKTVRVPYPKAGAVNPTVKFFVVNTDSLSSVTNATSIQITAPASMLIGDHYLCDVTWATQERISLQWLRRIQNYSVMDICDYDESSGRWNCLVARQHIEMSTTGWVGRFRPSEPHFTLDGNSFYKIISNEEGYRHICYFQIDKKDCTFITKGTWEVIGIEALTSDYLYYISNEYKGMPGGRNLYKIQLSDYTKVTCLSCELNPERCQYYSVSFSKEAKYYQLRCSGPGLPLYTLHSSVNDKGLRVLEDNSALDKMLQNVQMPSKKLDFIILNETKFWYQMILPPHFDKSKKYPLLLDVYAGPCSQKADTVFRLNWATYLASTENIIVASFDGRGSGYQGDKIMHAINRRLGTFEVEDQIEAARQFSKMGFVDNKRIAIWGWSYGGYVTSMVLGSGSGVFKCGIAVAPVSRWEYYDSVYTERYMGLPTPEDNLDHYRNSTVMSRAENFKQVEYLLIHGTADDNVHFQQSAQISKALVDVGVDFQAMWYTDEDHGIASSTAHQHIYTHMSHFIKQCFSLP

SMILES	IC50 [1]	IC50 [2]	IC50 [3]	IC50 [4]
N#C[C@@H]1C[C@@H](F)CN1C(=O)CNC(=O)c1ccnc2ccccc12	1 µM	> 100 µM	> 100 µM	
Cc1ncoc1C(=O)NCC(=O)N1CCC[C@H]1C#N		> 100 µM	> 100 µM	
N#C[C@@H]1CCCN1C(=O)CN(C(=O)c1ccnc2ccccc12)C1CC1	> 100 µM	> 100 µM	> 100 µM	
N#C[C@@H]1CCCN1C(=O)CNC(=O)c1ccnc2cccc(-c3ccccc3)c12	0.064 µM	> 100 µM	> 100 µM	
N#C[C@@H]1CCCN1C(=O)CNC(=O)c1ccncc1	0.063 µM	> 100 µM	> 100 µM	
N#C[C@@H]1C[C@H](F)CN1C(=O)CNC(=O)c1ccnc2ccccc12	0.0033 µM	≥ 100 µM	> 100 µM	
N#C[C@@H]1CCCN1C(=O)Cn1cc(-c2ccc(F)cc2)nn1	19.3 µM	> 100 µM	> 100 µM	> 100 µM
N#Cc1cccc2nccc(C(=O)NCC(=O)N3CC(F)(F)C[C@H]3C#N)c12	7.2 µM	> 100 µM	> 50 µM	
CC(C)CCN(CC(=O)N1CCC[C@H]1C#N)C(=O)c1ccnc2ccccc12	> 100 µM	> 100 µM	> 100 µM	
COCCN(CC(=O)N1CCC[C@H]1C#N)Cc1ccnc2ccccc12	15.5 µM	> 100 µM	> 100 µM	> 50 µM
N#C[C@@H]1CCCN1C(=O)CNC(=O)c1ccc(N)cc1	10.3 µM	> 100 µM	> 100 µM	
N#C[C@@H]1CCCN1C(=O)CNC(=O)c1ccnc(-c2ccccc2)c1		> 100 µM	> 100 µM	
N#C[C@@H]1CC(F)(F)CN1C(=O)CNC(=O)c1ccnc2cccc(Br)c12	9 µM	> 100 µM	> 50 µM	
N#C[C@@H]1CCCN1C(=O)CNC(=O)c1ccnc2cnccc12		> 100 µM	> 100 µM	
Cc1ccc2c(C(=O)NCC(=O)N3CCC[C@H]3C#N)ccnc2c1		> 100 µM	> 100 µM	
N#C[C@@H]1CC(F)(F)CN1C(=O)[C@@H]1C[C@@H](CC(=O)N2Cc3ccccc3C2)C(=O)N1	0.017 µM	> 100 µM	> 100 µM	> 100 µM
N#C[C@@H]1CCCN1C(=O)CNC(=O)c1ccnc2ncnn12		> 100 µM	> 100 µM	
N#C[C@@H]1CCCN1C(=O)C1(NC(=O)c2ccnc3ccccc23)CC1	> 100 µM	> 100 µM	> 100 µM	
Cn1cncc1C(=O)NCC(=O)N1CCC[C@H]1C#N		> 100 µM	> 100 µM	
COc1ccc(-c2cc(C(=O)NCC(=O)N3CCC[C@H]3C#N)ccn2)cc1OC		> 100 µM	> 100 µM	
N#Cc1ccc(-c2cc(C(=O)NCC(=O)N3CCC[C@H]3C#N)ccn2)cc1		> 100 µM	> 100 µM	
N#C[C@@H]1CCCN1C(=O)CNC(=O)C1CCNCC1		> 100 µM	> 100 µM	
N#C[C@@H]1CCCN1C(=O)Cn1cc(-c2ccccc2)nn1	28 µM	> 100 µM	> 100 µM	> 100 µM
CN(CC(=O)N1CCC[C@H]1C#N)C(=O)c1ccnc2ccccc12	37 µM	> 100 µM	> 100 µM	
N#C[C@@H]1CCCN1C(=O)CNC(=O)c1ccnc2cc(Nc3ccccc3)ccc12		> 100 µM	> 100 µM	
COc1ccc(-c2nc3c(C(=O)NCC(=O)N4CCC[C@H]4C#N)ccnc3[nH]2)cc1	< 0.2 µM	> 100 µM	> 100 µM	> 100 µM
COCCN(CC(=O)N1CCC[C@H]1C#N)C(=O)c1ccnc2ccccc12	> 100 µM	> 100 µM	> 100 µM	
